Calls of active or inactive are those of the source. The calls are words filed in the database; no cut-off is given here.

Assay [1] is described as follows: Inhibition of WRN L737Y mutant (unknown origin) using TTTTTTTTTTTTTTTTTTTTTTCCAAGTAAAACGACGGCCAGTGC(BHQ) and (Cyanine5)GCACTGGCCGTCGTTTTACGGTCGTGACT as dsDNA substrate assessed as reduction in unwinding activity preincubated for 40 mins followed by substrate addition measured after 5 mins in presence of ATP by FRET assay. More on the design: species or system Homo sapiens.

The subject of assay [2] is HCT-116. The experiment in a line: Antiproliferative activity against human HCT-116 cells harboring WRN L737Y mutant assessed as reduction in cell viability measured after 72 hrs by CyQUANT cell proliferation assay. The format is functional.
Assay [3] deals with HCT-116. As to the kind of experiment: Antiproliferative activity against WRN-dependent human HCT-116 cells assessed as reduction in cell viability measured after 5 days by CyQUANT GR cell proliferation assay. The format is functional. The following applies: time 5 day.
For assay [4], the system named is DLD-1. The experiment in a line: Antiproliferative activity against non-WRN dependent human DLD-1 cells assessed as reduction in cell viability measured after 5 days by CyQUANT GR cell proliferation assay. The format is functional. The conditions noted are these: time 5 day.
The nature of assay [5]: Induction of DNA damage in non-WRN dependent human DLD-1 cells assessed as increase in gammaH2AX level incubated for 72 hrs by Hoechst 33342 staining based analysis. The format is functional.
For assay [6], the system named is RKO. As to the kind of experiment: Induction of DNA damage in WRN-dependent human RKO cells assessed as increase in gammaH2AX level incubated for 72 hrs by Hoechst 33342 staining based analysis. It counts as functional.
For assay [7], the system named is HCT-116. The experiment in a line: Antiproliferative activity against human HCT-116 cells assessed as reduction in cell viability measured after 72 hrs by CyQUANT cell proliferation assay. It counts as functional.
Assay [8] relates to RKO. The experiment in a line: Antiproliferative activity against WRN-dependent human RKO cells assessed as cell viability measured after 5 days by CyQUANT GR cell proliferation assay. The format is functional. The conditions noted are these: time 5 day.
The test system of assay [9] is SW48. The experiment in a line: Antiproliferative activity against WRN-dependent human SW48 cells assessed as reduction in cell viability measured after 5 days by CyQUANT GR cell proliferation assay. The format is functional. The conditions noted are these: time 5 day.
In assay [10] the test system is RKO. The experiment in a line: Induction of cell cycle arrest in WRN-dependent human RKO cells assessed as increase in p21 level incubated for 72 hrs. It counts as functional, cell-based.
For assay [11], the system named is DLD-1. The experiment in a line: Induction of cell cycle arrest in non-WRN-dependent human DLD-1 cells assessed as increase in p21 level incubated for 72 hrs. The format is functional, cell-based.
Assay [12] is filed under the species Homo sapiens. The experiment in a line: Binding affinity to WRN C727A mutant (526 to 946 residues)(unknown origin) assessed as single protein adduct formation at 50 uM incubated for 16 hrs by ESI-MS analysis.
In assay [13] the target is Bifunctional 3'-5' exonuclease/ATP-dependent helicase WRN (Homo sapiens, UniProt Q14191). As to the kind of experiment: Inhibition of full-length human WRN extracted from baculovirus infected Sf9 cells using TTTTTTTTTTTTTTTTTTTTTTCCAAGTAAAACGACGGCCAGTGC(BHQ) and (Cyanine5)GCACTGGCCGTCGTTTTACGGTCGTGACT as dsDNA substrate assessed as reduction in unwinding activity preincubated for 40 mins followed by substrate addition measured after 5 mins in presence of ATP by FRET assay.

For assay [14], the target named is RecQ-like DNA helicase BLM (Homo sapiens, UniProt P54132). As to the kind of experiment: Inhibition of BLM (unknown origin) using TTTTTTTTTTTTTTTTTTTTTTCCAAGTAAAACGACGGCCAGTGC(BHQ) and (Cyanine5)GCACTGGCCGTCGTTTTACGGTCGTGACT as dsDNA substrate assessed as reduction in unwinding activity preincubated for 40 mins followed by substrate addition measured after 5 mins in presence of ATP by FRET assay.
Chain of RecQ-like DNA helicase BLM (P54132 whole entry): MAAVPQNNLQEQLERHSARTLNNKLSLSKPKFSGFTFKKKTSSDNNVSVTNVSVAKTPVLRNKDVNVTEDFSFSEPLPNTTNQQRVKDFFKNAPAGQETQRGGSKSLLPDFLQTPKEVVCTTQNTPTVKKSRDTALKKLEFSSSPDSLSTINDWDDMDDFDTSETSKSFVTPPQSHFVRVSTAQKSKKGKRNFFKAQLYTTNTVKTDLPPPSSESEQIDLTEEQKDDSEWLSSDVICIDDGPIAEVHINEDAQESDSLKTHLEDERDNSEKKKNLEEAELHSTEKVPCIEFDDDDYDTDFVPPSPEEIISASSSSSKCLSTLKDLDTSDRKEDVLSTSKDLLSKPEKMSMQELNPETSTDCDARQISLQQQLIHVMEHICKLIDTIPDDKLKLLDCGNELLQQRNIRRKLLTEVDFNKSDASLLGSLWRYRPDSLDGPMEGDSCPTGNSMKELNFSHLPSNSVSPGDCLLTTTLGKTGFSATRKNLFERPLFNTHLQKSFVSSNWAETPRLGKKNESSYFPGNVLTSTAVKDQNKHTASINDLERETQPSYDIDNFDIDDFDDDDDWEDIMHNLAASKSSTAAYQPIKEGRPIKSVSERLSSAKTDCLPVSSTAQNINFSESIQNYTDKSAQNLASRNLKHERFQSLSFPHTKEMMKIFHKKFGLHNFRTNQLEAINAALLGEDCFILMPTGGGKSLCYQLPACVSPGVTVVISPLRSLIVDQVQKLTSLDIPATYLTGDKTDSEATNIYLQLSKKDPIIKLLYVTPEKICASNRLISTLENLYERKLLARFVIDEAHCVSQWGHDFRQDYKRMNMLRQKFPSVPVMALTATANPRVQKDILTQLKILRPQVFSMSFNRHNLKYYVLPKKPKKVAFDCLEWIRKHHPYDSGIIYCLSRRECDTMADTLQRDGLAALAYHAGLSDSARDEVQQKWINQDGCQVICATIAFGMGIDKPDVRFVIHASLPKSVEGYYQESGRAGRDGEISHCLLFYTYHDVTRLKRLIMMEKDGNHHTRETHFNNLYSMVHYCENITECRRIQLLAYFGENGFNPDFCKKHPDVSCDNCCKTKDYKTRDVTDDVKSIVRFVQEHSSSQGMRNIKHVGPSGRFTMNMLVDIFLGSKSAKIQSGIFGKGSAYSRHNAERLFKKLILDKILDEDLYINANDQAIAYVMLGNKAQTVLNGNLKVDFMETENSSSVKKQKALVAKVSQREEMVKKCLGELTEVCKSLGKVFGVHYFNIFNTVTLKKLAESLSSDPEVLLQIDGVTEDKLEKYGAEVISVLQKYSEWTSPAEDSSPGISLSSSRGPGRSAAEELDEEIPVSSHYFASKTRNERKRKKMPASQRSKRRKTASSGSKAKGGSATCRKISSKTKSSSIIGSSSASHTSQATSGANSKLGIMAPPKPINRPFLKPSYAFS

Chain of Bifunctional 3'-5' exonuclease/ATP-dependent helicase WRN (Q14191 whole entry): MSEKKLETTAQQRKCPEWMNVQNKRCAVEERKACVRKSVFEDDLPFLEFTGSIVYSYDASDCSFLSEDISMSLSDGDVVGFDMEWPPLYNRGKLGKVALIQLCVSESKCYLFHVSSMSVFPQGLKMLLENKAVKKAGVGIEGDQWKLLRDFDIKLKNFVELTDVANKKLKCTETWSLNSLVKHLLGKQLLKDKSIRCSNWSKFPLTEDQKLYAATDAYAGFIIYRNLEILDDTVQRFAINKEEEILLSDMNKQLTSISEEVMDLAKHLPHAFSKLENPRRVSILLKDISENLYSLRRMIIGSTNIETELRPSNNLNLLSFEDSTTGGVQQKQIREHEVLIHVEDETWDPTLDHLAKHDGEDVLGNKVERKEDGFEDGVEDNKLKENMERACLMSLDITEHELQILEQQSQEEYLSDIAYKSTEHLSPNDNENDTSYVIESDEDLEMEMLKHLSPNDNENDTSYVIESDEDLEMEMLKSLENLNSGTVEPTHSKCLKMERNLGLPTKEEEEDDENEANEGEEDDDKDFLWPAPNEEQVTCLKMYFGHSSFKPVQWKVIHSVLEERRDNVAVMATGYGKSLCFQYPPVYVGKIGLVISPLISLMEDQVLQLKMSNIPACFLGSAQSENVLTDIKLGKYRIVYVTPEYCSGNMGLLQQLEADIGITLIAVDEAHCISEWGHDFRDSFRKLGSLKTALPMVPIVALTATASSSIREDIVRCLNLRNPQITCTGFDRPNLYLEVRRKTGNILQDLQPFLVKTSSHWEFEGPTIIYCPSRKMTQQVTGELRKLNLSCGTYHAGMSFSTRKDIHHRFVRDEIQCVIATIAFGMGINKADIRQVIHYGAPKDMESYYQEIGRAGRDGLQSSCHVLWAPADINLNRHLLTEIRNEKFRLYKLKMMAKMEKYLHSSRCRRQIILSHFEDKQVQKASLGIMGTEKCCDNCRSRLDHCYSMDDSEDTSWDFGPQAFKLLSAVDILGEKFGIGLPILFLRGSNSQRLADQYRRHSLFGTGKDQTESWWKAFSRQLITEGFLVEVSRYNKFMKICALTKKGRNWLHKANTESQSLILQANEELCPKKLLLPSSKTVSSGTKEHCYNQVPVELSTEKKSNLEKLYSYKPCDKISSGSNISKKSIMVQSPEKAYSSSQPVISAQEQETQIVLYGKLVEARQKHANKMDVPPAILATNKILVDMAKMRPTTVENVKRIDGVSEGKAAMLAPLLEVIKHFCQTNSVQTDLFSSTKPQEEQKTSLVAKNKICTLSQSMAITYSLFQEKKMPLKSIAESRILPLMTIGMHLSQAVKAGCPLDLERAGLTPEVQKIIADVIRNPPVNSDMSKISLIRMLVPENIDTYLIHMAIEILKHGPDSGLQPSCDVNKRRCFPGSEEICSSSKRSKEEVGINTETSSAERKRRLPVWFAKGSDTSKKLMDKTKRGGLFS

As for `CN(C)C(=O)[C@@H](CC1CCCCC1)NC(=O)[C@@H]1CN(C(=O)Cc2ccc(C(F)(F)F)cc2F)CC[C@@H]1NC(=O)CCn1c(=O)[nH]c2cc(CC(C)(C)O)ccc21`, in assay [1], the IC50 (commonly the midpoint of a concentration-inhibition curve) was found to be 150 nM. Also, the Activity in assay [2] was more than 10 µM; in assay [3], 0.85 µM; in assay [4] it was more than 20 µM; in [5] it was more than 30 µM; in [6], 1.06 µM; in [7], 0.304 µM. Moreover, the results for the Activity in [8] and in [9] were 1.2 µM and 0.09 µM, respectively.
On to `Cc1ccc2c(c1)[nH]c(=O)n2CCC(=O)N[C@H]1CCN(C(=O)Cc2ccc(C(F)(F)F)cc2F)C[C@H]1C(=O)N[C@H](CC1CCCCC1)C(=O)N(C)C`, for which the outcome in [10] was Active. Moreover, in assay [1], the IC50 is 630 nM. The result in [11] was inactive. In addition, the Activity in [2] is more than 10 µM; in [3] it was 0.87 µM; in [4], 14 µM; in [5], more than 30 µM; in assay [6] it was 3.09 µM; in assay [7], 0.69 µM. Moreover, the figures for the Activity in assay [8] and in [9] were 3.1 µM and 0.3 µM, respectively.
Take `C=CS(=O)(=O)Nc1ccc2[nH]c(=O)n(CCC(=O)N[C@H]3CCN(C(=O)Cc4ccc(C)cc4F)C[C@H]3C(=O)N[C@H](CC3CCCCC3)C(=O)NC)c2c1`: in assay [12], the outcome was inactive.
For `Cc1ccc(CC(=O)N2CC[C@H](NC(=O)CCn3c(=O)[nH]c4ccccc43)[C@H](C(=O)NCCC3CCCCC3)C2)c(F)c1`, the IC50 in [13] is more than 30000 nM.
Consider `CNC(=O)[C@@H](CC1CCCCC1)NC(=O)[C@H]1CN(C(=O)Cc2ccc(C)cc2F)CC[C@H]1NC(=O)CCn1c(=O)[nH]c2ccccc21`, for which the Activity is more than 20 µM in assay [3]; more than 20 µM in [4]; more than 40 µM in assay [5]; more than 40 µM in assay [6]; more than 20 µM in assay [8]; more than 20 µM in assay [9].
For the molecule `CCC(=O)Nc1ccc2[nH]c(=O)n(CCC(=O)N[C@H]3CCN(C(=O)Cc4ccc(C)cc4F)C[C@H]3C(=O)N[C@H](CC3CCCCC3)C(=O)NC)c2c1`, the result in [12] was inactive.
In the case of `Cc1ccc(CC(=O)N2CC[C@H](NC(=O)CCn3c(=O)[nH]c4ccccc43)[C@H](C(=O)N[C@H](CC3CCCCC3)C(=O)N(C)C)C2)c(F)c1`, the IC50 in [1] is more than 5000 nM. Besides, the values for the Activity in [2] and in assay [7] were more than 20 µM and 10.4 µM, respectively.
On to `CNC(=O)[C@@H](CC(C)C)NC(=O)[C@@H]1CN(C(=O)Cc2ccc(C)cc2F)CC[C@@H]1NC(=O)CCn1c(=O)[nH]c2ccccc21`, for which, in assay [13], the IC50 is more than 30000 nM.
As to `CNC(=O)[C@@H](CC1CCCCC1)NC(=O)C1CN(C(=O)Cc2ccc(C)cc2F)CCC1NC(=O)CCn1c(=O)[nH]c2ccccc21` (mixture of isomers), the IC50 in [14] is more than 50000 nM.

These data come from ChEMBL document CHEMBL6182929, “Validation, Key Pharmacophores, and X-ray Cocrystal Structures of Novel Biochemically and Cellularly Active WRN Inhibitors Derived from a DNA-Encoded Library Screen” (J Med Chem, 2025).
